Measured values from US20250179113A1, “STEROID COMPOUND FOR TREATING CENTRAL NERVOUS SYSTEM DISEASE, METHOD FOR PREPARING SAME, AND USE AND PHARMACEUTICAL COMPOSITION THEREOF” (HUNAN KYF PHARMACEUTICAL CO., LTD., priority 2022, published 2025).

Tests used:
[1] = system: GABAa receptor chloride ion channel of U251 cells; assay: MQAE chloride ion fluorescent probe test on U251 cells (GABA-activated chloride channel); format: cell-based, human; details: sample 10 μM (Table 1), GABA in matrix, 1 min after addition, n = 6, vehicle control 42.543 ± 4.202
[2] = system: mouse model of acute depression; assay: Tail-suspension test, mouse model of acute depression; format: in vivo, ICR mice; details: 3 days; for Average Duration of Immobile State (Mean ± Standard Deviation), female: female ICR mice, model control 170.57 ± 28.43; for Average Duration of Immobile State (Mean ± Standard Deviation), female / Average Duration of Immobile State (Mean ± Standard Deviation), male: 26.0 mg/kg intraperitoneal, tested 24 h after administration, last 4 of 6 min, n = 5, 26 mg/kg; for Average Duration of Immobile State (Mean ± Standard Deviation), male: male ICR mice, model control 151.23 ± 35.02
Protocol: The experimental animals were administered drugs according to the grouping after 3 days of adaptive feeding. The experimental groups included the model group, the compound TM1 group, and the compound TM2 group. For each group of compounds to be tested, edible oil was used as the vehicle, and the administration route for all animals was intraperitoneal injection. The vehicle control group was given the same volume of edible oil by intraperitoneal injection, and the administration volume for each group was 20 mL/kg.
Brexanolone is used to treat postpartum depression. Its usage and dosage are continuous intravenous injection for 60 hours, with a dosage of 100 mg every 12 hours. At the beginning of the administration, it is necessary to gradually increase the drug use rate, and at the end of the administration, it is necessary to gradually decrease the drug use rate. Therefore, the total drug use within the treatment cycle is 450 mg. Referring to the Brexanolone administration cycle, the administration cycle was set to 3 days, with one administration in the morning every day.
The clinical dosage of Brexanolone is approximately 200 mg/d. Calculated based on an adult weight of 70 kg, the clinical dose of Brexanolone is 2.857 mg/kg/d. The equivalent dose conversion coefficient between humans and mice calculated according to body surface area is 0.0026. Taking the weight of mice as 20 g, the converted dose for mice is: 2.857 mg/kg/d×70 kg×0.0026/0.02 kg=25.999 mg/kg/d, which is counted as 26.0 mg/kg/d.
This study is for validity verification, and single-dose detection is used for the time being. The administration cycle and clinical dosage of the compounds of the present invention refer to the administration cycle and clinical dosage of Brexanolone mentioned above.
The detection indicator is the behavioral changes of mice in the last 4 minutes within 6 minutes, including the time when the immobile state first appears and the duration of the immobile state. Among them, the immobile state refers to the state in which the animal gives up active struggling and remains completely still.
Detection method: 24 hours after the administration of drugs to animals in each group, the animals in each group were placed in the laboratory for 30 minutes to 1 hour to reduce the animals' anxiety about the new environment. Install a video camera in front of the tail suspension box, set the corresponding parameters in the software, and enter the information such as the animal number and status. Take out the experimental animals, mark them with a marker pen at a position […] away from the tip of the tail, fix the tail at the marked position with medical tape. After the tails of the animals in the same group are fixed with tape, quickly suspend the mice in the same group into the tail suspension box device, turn on the behavioral software to record the behavioral situation for 6 minutes, and analyze the behavioral changes in the last 4 minutes.

[3] = system: GABAA receptor (primary hippocampal neuronal cells); assay: Whole-cell patch clamp of GABA receptor currents in primary hippocampal neuronal cells; format: cell-based, SD suckling mice; details: average

SMILES | Average fluorescence intensity (mean ± standard deviation) [1] | Average Duration of Immobile State (Mean ± Standard Deviation), female [2] | Average Duration of Immobile State (Mean ± Standard Deviation), male [2] | immobility time prolonged compared with the model control group, male animals ([2]; male mice, 26.0 mg/kg i.p.) | The percentage increase after calibration with GABA 15 μM as the reference, GABA 15 μM + TM 18 0.01 μM ([3]; TM 18 0.01 μM with GABA 15 μM) | The percentage increase after calibration with GABA 15 μM as the reference, GABA 15 μM + TM 18 0.1 μM ([3]; TM 18 0.1 μM with GABA 15 μM) | The percentage increase after calibration with GABA 15 μM as the reference, GABA 15 μM + TM 18 1 μM ([3]; TM 18 1 μM with GABA 15 μM)
CC1(O)CCC2(C)C(CCC3C2CCC2(C)C(C(=O)Cn4cc(C#N)cn4)CCC32)C1 (stereo not shown) [TM17] | 47.499±2.240 | 198.88 ± 15.08 s | 177.67 ± 20.05 s |  |  |  | 
CC1(O)CCC2(C)C(CCC3C2CCC2(C)C(C(=O)Cn4cc(C#N)cn4)CCC32)C1 (stereo not shown) [TM18] | 48.621±1.006 | 174.02 ± 18.28 s | 193.80 ± 15.62 s | about 20% | 129.85% | 288.44% | 108.82%
